Values of other authors, collected in patent publication US20050048543A1 (priority 2003, published 2005).

What was measured:
[1] = system: patients with mild to moderate AD; conditions: galantamine therapy in patients

In the case of `COc1ccc2c3c1O[C@H]1C[C@@H](O)C=C[C@@]31CCN(C)C2` [galantamine], the “most common side effects” value [1] is given as “nausea, vomiting, diarrhea, dizziness and anorexia”.

For `Nc1c2c(nc3ccccc13)CCCC2` [tacrine], the “response to treatment in presence of the ApoE4 polymorphism” value (AD patients) is given as “reduced response to treatment”.
